In brackets after ≈: the same amount, converted by molar mass.
Legend:
Assay in all cases: MIC by microbroth dilution (NCCLS)
Assay type in all cases: cell-based
[1] = tested on: Enterococcus faecalis ATCC29212; details: E. faecalis ATCC29212, Rif-S; BHI Broth
[2] = tested on: Staphylococcus aureus ATCC29213; details: S. aureus ATCC29213, Rif-S; Cation-Adjusted Mueller-Hinton Broth, 37° C.
[3] = tested on: Haemophilus influenzae ATCC10211; details: H. influenzae ATCC10211, Rif-S; BHI Broth with NAD and hematin
[4] = tested on: Streptococcus pyogenes ATCC19615; details: S. pyogenes ATCC19615, Rif-S; THY Broth
[5] = tested on: Streptococcus pneumoniae ATCC6303; details: S. pneumoniae ATCC6303, Rif-S; THY Broth with catalase, 5% CO2
[6] = tested on: Escherichia coli ATCC25922; details: E. coli ATCC25922, Rif-S; Cation-Adjusted Mueller-Hinton Broth
[7] = tested on: Staphylococcus epidermidis ATCC 12228; details: S. epidermidis ATCC 12228, Rif-S
[8] = tested on: Staphylococcus aureus ATCC29213 RpoB^H481Y
Experimental: (§1) Representative compounds were assayed for antimicrobial activity as follows: Minimum Inhibitory Concentrations (MICs) were determined by the microbroth dilution method as per NCCLS guidelines (National Committee for Clinical Laboratory Standards 2000), except that all growth incubations were conducted at 37° C. Bacterial cultures were tested in the following bacteriological media: S. aureus, S. epidermidis, and E. coli in Cation-Adjusted Mueller-Hinton Broth, S. pneumoniae in THY Broth supplemented with 1 mg/mL catalase under 5% CO2 atmosphere, S. pyogenes in THY Broth, E. faecalis in BHI Broth, H. influenzae in BHI Broth supplemented with 0.75 μL of 1 mg/mL NAD and 150 μL of 1 mg/ml hematin per 5 mL, and M. smegmatis in Middlebrook Broth plus ADC Enrichment.
(§2) S. aureus ATCC 29213 RpoB^H481Y is a rifampin-resistant strain with a mutation in RNA polymerase. […] S. aureus ATCC 29213 GyrA^S84LParC^S80F is a quinolone-resistant strain with mutations to both DNA gyrase and topoisomerase IV.

[9] = tested on: Staphylococcus aureus ATCC29213 RpoB^D471Y
Experimental: as §1, §2

[10] = tested on: Staphylococcus aureus ATCC29213 GyrA^S84L ParC^S80F; details: S. aureus ATCC29213 GyrA^S84L ParC^S80F, FQ-R
Experimental: as §1, §2

[11] = Staphylococcus aureus, ATCC29213

## CO[C@H]1/C=C/O[C@@]2(C)Oc3c(C)c(O)c4c(O)c(c(/C=N/N5CCN(C)CC5)c(O)c4c3C2=O)NC(=O)/C(C)=C\C=C\[C@H](C)[C@H](O)[C@@H](C)[C@@H](O)[C@@H](C)[C@H](OC(C)=O)[C@@H]1C [Rifampin]
[1]
  Antimicrobial activity (MIC range): 0.98 µg/mL
[2]
  Antimicrobial activity (MIC range): 0.008 µg/mL
[3]
  Antimicrobial activity (MIC range): 0.24 µg/mL
[4]
  Antimicrobial activity (MIC range): 0.013 µg/mL
[5]
  Antimicrobial activity (MIC range): 0.061 µg/mL
[6]
  Antimicrobial activity (MIC range): 16 µg/mL
[7]
  Antimicrobial activity (MIC range): 0.03 µg/mL
[8]; S. aureus ATCC29213 RpoB^H481Y, Rif-R
  Antimicrobial activity (MIC range): >64 µg/mL
[8]; [11]
  MIC: > 64 µg/mL
[9]; S. aureus ATCC29213 RpoB^D471Y, Rif-R
  Antimicrobial activity (MIC range): 8 µg/mL
[9]; [11]
  MIC: 8 µg/mL (≈ 9.72 µM)
[10]
  Antimicrobial activity (MIC range): 0.008 µg/mL
